In article PMC7265341, “Quantifying CDK inhibitor selectivity in live cells” (Nature Communications, 2020):
Like-named read-outs stand apart in the source and are kept apart here.

What was measured:
CDK1/Cyclin E1 = CDK1/Cyclin E1 (Homo sapiens, UniProt P06493); test: NanoBRET live-cell target engagement, CDK1-NanoLuc/Cyclin E1 in HEK-293; assay type: binding; settings: CDK1/E1, 10µM
CDK2/Cyclin E1 = CDK2/Cyclin E1 (Homo sapiens, UniProt P24941); test: NanoBRET live-cell target engagement, CDK2-NanoLuc/Cyclin E1 in HEK-293; assay type: binding; settings: CDK2/E1, 10µM
CDK3/Cyclin E1 = CDK3/Cyclin E1 (Homo sapiens, UniProt Q00526); test: NanoBRET live-cell target engagement, CDK3-NanoLuc/Cyclin E1 in HEK-293; assay type: binding; settings: CDK3/E1, 10µM
CDK4/Cyclin D1 = CDK4/Cyclin D1 (Homo sapiens, UniProt P11802); test: NanoBRET live-cell target engagement, NanoLuc-CDK4/Cyclin D1 in HEK-293; assay type: binding; settings: CDK4/D1, 10µM
Sequence of CDK4/Cyclin D1 (P11802 whole entry): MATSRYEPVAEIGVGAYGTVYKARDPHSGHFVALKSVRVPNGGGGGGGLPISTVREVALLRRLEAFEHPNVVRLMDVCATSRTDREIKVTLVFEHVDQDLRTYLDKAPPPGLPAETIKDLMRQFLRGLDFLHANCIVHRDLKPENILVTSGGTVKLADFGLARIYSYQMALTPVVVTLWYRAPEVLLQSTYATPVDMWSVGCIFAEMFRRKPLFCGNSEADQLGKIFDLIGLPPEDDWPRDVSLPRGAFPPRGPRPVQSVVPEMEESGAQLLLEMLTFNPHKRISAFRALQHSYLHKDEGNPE
Sequence of CDK4/Cyclin D1 (P24385 whole entry partner): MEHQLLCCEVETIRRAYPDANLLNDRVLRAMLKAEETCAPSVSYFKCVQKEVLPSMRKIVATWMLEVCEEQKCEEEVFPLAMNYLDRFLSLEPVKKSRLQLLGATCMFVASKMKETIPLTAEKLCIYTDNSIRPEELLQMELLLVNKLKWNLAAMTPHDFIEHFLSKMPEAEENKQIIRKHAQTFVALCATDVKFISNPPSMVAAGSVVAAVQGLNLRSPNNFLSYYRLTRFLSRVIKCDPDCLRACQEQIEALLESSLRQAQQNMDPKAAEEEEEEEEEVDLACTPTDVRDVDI

CDK5/CDK5R1 = CDK5/CDK5R1 (Homo sapiens, UniProt Q00535); test: NanoBRET live-cell target engagement, CDK5-NanoLuc/CDK5R1 in HEK-293; assay type: binding; settings: CDK5/CDK5R1, 10µM
CDK6/Cyclin D1 = CDK6/Cyclin D1 (Homo sapiens, UniProt Q00534); test: NanoBRET live-cell target engagement, NanoLuc-CDK6/Cyclin D1 in HEK-293; assay type: binding; settings: CDK6/D1, 10µM
Sequence of CDK6/Cyclin D1 (Q00534 whole entry): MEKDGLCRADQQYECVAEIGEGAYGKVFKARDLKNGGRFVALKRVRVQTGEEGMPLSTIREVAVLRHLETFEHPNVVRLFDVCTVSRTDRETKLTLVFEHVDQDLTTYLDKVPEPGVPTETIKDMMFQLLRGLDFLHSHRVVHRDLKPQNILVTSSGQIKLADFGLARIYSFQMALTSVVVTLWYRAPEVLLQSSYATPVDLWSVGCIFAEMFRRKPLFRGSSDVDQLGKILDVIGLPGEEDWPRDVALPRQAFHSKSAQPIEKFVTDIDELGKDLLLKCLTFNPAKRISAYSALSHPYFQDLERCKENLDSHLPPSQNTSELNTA
Sequence of CDK6/Cyclin D1 (P24385 whole entry partner): as the sequence (P24385 whole entry partner) above

CDK8/Cyclin C = CDK8/Cyclin C (Homo sapiens, UniProt P49336); test: NanoBRET live-cell target engagement, NanoLuc-CDK8/Cyclin C in HEK-293; assay type: binding; settings: CDK8/C, 10µM
Sequence of CDK8/Cyclin C (P49336 whole entry): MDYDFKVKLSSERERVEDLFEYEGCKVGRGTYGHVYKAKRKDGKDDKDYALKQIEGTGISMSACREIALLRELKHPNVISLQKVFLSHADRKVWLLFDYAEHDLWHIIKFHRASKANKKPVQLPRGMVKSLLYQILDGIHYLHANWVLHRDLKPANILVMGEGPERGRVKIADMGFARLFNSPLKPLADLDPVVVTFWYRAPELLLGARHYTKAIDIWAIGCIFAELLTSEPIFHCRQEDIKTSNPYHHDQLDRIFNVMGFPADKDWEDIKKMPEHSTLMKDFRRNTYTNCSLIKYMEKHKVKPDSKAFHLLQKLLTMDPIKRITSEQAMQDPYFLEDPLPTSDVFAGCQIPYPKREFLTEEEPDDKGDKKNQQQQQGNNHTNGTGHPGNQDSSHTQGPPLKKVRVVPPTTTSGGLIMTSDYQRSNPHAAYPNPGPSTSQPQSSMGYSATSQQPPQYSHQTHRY
Sequence of CDK8/Cyclin C (P24863 whole entry partner): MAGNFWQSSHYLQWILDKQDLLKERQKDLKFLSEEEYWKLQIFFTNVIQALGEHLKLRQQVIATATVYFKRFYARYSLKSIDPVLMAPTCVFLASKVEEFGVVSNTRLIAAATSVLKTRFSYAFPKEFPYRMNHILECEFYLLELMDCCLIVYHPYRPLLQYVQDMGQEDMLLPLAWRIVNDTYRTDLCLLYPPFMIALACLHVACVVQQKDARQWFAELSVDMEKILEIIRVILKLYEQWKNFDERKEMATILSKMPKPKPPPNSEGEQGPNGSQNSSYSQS

CDK9/Cyclin K = CDK9/Cyclin K (Homo sapiens, UniProt P50750); test: NanoBRET live-cell target engagement, NanoLuc-CDK9/Cyclin K in HEK-293; assay type: binding; settings: CDK9/K, 10µM
CDK11A/Cyclin L2 = molecular target: T1, CDK11A/Cyclin L2 (Homo sapiens, UniProt Q9UQ88); test: NanoBRET live-cell target engagement, CDK11A-NanoLuc/Cyclin L2 in HEK-293; assay type: binding; settings: CDK11a/L2, 10µM
T1 sequence (Q9UQ88 1-783): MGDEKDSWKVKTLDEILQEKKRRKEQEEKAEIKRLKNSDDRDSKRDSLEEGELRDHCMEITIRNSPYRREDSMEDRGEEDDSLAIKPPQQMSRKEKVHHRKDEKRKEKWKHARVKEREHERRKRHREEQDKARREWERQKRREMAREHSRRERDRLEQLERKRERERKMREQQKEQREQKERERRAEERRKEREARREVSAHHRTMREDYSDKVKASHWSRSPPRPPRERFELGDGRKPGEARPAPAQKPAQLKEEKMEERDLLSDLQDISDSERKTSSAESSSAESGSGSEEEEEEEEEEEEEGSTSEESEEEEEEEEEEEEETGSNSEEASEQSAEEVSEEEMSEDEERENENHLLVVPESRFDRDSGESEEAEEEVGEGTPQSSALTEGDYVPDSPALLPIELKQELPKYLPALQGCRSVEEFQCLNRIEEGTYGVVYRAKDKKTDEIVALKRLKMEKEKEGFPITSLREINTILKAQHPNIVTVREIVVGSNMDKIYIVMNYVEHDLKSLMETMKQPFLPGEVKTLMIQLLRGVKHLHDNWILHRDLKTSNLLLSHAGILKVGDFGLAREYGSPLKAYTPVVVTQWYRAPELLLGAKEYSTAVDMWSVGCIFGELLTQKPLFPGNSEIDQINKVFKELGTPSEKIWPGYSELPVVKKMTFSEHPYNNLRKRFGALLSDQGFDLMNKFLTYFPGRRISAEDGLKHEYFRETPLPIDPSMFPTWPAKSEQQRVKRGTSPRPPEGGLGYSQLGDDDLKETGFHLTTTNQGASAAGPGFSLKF

CDK11B/Cyclin L2 = CDK11B/Cyclin L2 (Homo sapiens, UniProt P21127); test: NanoBRET live-cell target engagement, CDK11B-NanoLuc/Cyclin L2 in HEK-293; assay type: binding; settings: CDK11b/L2, 10µM
Sequence of CDK11B/Cyclin L2 (P21127 1-782 isoform P21127-2): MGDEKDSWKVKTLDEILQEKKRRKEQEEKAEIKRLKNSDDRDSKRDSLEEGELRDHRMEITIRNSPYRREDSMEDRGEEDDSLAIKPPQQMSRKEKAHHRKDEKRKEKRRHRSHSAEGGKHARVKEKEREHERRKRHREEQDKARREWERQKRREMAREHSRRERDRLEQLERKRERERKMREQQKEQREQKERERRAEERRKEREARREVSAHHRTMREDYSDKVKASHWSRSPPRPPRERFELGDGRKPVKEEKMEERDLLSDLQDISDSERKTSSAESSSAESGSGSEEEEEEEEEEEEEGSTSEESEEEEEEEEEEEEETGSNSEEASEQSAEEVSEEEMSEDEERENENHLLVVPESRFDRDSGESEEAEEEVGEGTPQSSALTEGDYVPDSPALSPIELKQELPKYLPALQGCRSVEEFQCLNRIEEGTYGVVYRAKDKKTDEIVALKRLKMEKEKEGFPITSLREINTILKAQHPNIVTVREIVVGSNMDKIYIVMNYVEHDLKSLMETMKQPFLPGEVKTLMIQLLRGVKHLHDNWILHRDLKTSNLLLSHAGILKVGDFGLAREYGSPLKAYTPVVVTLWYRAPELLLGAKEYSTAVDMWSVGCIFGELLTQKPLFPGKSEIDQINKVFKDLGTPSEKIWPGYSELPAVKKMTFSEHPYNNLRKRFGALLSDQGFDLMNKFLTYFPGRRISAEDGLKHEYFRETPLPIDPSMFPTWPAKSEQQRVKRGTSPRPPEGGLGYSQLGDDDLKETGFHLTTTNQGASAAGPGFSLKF

CDK12/Cyclin K = CDK12/Cyclin K (Homo sapiens, UniProt Q9NYV4); test: NanoBRET live-cell target engagement, CDK12-NanoLuc/Cyclin K in HEK-293; assay type: binding; settings: 10µM
CDK13/Cyclin K = CDK13/Cyclin K (Homo sapiens, UniProt Q14004); test: NanoBRET live-cell target engagement, CDK13-NanoLuc/Cyclin K in HEK-293; assay type: binding; settings: CDK13/K, 10µM
CDK15/Cyclin Y = CDK15/Cyclin Y (Homo sapiens, UniProt Q96Q40); test: NanoBRET live-cell target engagement, NanoLuc-CDK15/Cyclin Y in HEK-293; assay type: binding; settings: CDK15/Y, 10µM
CDK16/Cyclin Y = CDK16/Cyclin Y (Homo sapiens, UniProt Q00536); test: NanoBRET live-cell target engagement, CDK16-NanoLuc/Cyclin Y in HEK-293; assay type: binding; settings: CDK16/Y, 10µM
CDK17/Cyclin Y = CDK17/Cyclin Y (Homo sapiens, UniProt Q00537); test: NanoBRET live-cell target engagement, CDK17-NanoLuc/Cyclin Y in HEK-293; assay type: binding; settings: CDK17/Y, 10µM
CDK18/Cyclin Y = CDK18/Cyclin Y (Homo sapiens, UniProt Q07002); test: NanoBRET live-cell target engagement, CDK18-NanoLuc/Cyclin Y in HEK-293; assay type: binding; settings: CDK18/Y, 10µM
Sequence of CDK18/Cyclin Y (Q07002 whole entry): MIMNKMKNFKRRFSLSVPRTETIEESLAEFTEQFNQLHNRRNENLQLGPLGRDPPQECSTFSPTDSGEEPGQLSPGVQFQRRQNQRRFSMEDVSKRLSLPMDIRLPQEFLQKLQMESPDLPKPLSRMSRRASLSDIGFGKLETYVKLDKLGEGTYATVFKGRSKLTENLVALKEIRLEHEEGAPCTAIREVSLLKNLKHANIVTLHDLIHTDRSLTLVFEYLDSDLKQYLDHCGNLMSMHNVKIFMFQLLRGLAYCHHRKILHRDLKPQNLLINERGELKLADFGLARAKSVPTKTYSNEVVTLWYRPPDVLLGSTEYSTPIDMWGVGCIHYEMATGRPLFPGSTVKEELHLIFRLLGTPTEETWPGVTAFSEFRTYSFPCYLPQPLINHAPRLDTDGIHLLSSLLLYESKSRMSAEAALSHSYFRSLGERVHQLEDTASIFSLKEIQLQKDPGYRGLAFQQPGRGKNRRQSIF
Sequence of CDK18/Cyclin Y (Q8ND76 whole entry partner): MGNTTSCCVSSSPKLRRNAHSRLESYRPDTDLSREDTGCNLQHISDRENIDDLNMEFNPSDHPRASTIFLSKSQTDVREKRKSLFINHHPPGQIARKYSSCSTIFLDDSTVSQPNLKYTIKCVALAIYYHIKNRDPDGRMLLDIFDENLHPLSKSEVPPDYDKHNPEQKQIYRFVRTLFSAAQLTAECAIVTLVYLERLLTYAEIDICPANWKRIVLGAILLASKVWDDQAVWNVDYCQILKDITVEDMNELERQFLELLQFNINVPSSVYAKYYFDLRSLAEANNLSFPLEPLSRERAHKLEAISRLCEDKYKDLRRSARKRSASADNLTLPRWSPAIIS

CDK20/Cyclin H = CDK20/Cyclin H (Homo sapiens, UniProt Q8IZL9); test: NanoBRET live-cell target engagement, NanoLuc-CDK20/Cyclin H in HEK-293; assay type: binding; settings: 10µM
CDK19/Cyclin C = CDK19/Cyclin C (Homo sapiens, UniProt Q9BWU1); test: NanoBRET live-cell target engagement, NanoLuc-CDK19/Cyclin C in HEK-293; settings: 10µM
Sequence of CDK19/Cyclin C (Q9BWU1 whole entry): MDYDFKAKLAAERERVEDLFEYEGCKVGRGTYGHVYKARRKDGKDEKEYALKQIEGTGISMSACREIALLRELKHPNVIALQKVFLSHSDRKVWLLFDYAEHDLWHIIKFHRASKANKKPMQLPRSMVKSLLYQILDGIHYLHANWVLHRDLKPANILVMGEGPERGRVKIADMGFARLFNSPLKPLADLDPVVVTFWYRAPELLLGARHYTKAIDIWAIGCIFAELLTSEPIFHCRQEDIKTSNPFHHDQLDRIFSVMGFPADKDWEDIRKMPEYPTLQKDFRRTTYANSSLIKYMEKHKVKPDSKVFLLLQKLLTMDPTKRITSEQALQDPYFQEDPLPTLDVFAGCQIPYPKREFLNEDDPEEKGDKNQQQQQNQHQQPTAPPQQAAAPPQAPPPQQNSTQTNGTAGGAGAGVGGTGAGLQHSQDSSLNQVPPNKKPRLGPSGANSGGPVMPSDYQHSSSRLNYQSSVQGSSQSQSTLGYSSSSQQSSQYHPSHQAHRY
Sequence of CDK19/Cyclin C (P24863 whole entry partner): as the sequence (P24863 whole entry partner) above

CDK10/Cyclin L2 = CDK10/Cyclin L2 (Homo sapiens, UniProt Q15131); test: NanoBRET live-cell target engagement, CDK10-NanoLuc/Cyclin L2 in HEK-293; settings: 10µM
Sequence of CDK10/Cyclin L2 (Q15131 whole entry): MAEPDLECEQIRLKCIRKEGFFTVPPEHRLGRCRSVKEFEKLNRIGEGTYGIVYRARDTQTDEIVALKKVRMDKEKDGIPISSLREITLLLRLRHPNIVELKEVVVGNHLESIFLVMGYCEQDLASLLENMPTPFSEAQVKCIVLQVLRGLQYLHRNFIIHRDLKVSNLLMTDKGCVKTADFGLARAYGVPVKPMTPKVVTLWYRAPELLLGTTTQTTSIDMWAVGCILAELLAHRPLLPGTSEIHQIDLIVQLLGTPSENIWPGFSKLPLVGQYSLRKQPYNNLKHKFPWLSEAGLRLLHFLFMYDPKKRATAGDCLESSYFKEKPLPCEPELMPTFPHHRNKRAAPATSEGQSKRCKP

[1] = average of replicates, read-out: Inhibition at 10µM (%) Average
[2] = read-out: Inhibition at 10µM (%) Replicate 1
[3] = read-out: Inhibition at 10µM (%) Replicate 2

Sequence of CDK1/Cyclin E1 (P06493 whole entry): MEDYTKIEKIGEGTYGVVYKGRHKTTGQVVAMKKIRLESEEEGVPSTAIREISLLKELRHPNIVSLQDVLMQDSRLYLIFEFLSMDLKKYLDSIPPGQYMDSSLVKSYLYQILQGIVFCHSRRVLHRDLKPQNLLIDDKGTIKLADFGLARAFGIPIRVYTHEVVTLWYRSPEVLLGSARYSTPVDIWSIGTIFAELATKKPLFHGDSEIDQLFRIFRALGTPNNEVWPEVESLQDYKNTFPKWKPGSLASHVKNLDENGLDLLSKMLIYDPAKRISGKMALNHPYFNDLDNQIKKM
Sequence of CDK1/Cyclin E1 (P24864 whole entry partner): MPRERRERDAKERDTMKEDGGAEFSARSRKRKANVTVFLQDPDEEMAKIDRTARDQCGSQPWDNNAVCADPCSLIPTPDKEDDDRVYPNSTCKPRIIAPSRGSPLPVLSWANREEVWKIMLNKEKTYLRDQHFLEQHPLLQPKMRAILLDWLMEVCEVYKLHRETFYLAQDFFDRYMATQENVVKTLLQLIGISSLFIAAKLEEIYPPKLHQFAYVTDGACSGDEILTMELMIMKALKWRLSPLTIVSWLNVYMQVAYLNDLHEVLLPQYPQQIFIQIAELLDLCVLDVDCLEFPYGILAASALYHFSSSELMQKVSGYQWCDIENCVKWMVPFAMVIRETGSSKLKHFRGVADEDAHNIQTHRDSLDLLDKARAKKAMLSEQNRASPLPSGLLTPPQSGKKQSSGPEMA

`COc1cc(F)ccc1-c1ncnc(Nc2cccc(C[S@](C)(=N)=O)c2)n1` [Atuveciclib] gave an inhibition at 10 µM (CDK1/Cyclin E1; [1]) of 16.6%, an inhibition at 10 µM (CDK1/Cyclin E1; [2]) of 19.4% and an inhibition at 10 µM (CDK1/Cyclin E1; [3]) of 13.8%. For the same molecule, the inhibition at 10 µM (CDK2/Cyclin E1; [1]) was 41.7%, the inhibition at 10 µM (CDK2/Cyclin E1; [2]) was 42.9% and the inhibition at 10 µM (CDK2/Cyclin E1; [3]) was 40.5%. For the same molecule, the inhibition at 10 µM (CDK3/Cyclin E1; [1]) was 48.4%, the inhibition at 10 µM (CDK3/Cyclin E1; [2]) was 47.3% and the inhibition at 10 µM (CDK3/Cyclin E1; [3]) was 49.6%. For the same molecule, the inhibition at 10 µM (CDK4/Cyclin D1; [1]) was 31.5%, the inhibition at 10 µM (CDK4/Cyclin D1; [2]) was 53.7% and the inhibition at 10 µM (CDK4/Cyclin D1; [3]) was 9.3%. It also gave an inhibition at 10 µM (CDK5/CDK5R1; [1]) of 26.1%, an inhibition at 10 µM (CDK5/CDK5R1; [2]) of 23.9% and an inhibition at 10 µM (CDK5/CDK5R1; [3]) of 28.3%. For the same molecule, the inhibition at 10 µM (CDK6/Cyclin D1; [1]) was 64.1%, the inhibition at 10 µM (CDK6/Cyclin D1; [2]) was 61.7% and the inhibition at 10 µM (CDK6/Cyclin D1; [3]) was 66.4%. For the same molecule, the inhibition at 10 µM (CDK8/Cyclin C; [1]) was 3%, the inhibition at 10 µM (CDK8/Cyclin C; [2]) was -1% and the inhibition at 10 µM (CDK8/Cyclin C; [3]) was 7%. It also gave an inhibition at 10 µM (CDK9/Cyclin K; [1]) of 97.9%, an inhibition at 10 µM (CDK9/Cyclin K; [2]) of 98.1% and an inhibition at 10 µM (CDK9/Cyclin K; [3]) of 97.6%. The inhibition at 10 µM (CDK11A/Cyclin L2; [1]) was 10%, the inhibition at 10 µM (CDK11A/Cyclin L2; [2]) was 12.3% and the inhibition at 10 µM (CDK11A/Cyclin L2; [3]) was 7.6%. The inhibition at 10 µM (CDK11B/Cyclin L2; [1]) was 7.4%, the inhibition at 10 µM (CDK11B/Cyclin L2; [2]) was 11.9% and the inhibition at 10 µM (CDK11B/Cyclin L2; [3]) was 2.9%. It also gave an inhibition at 10 µM (CDK12/Cyclin K; read-out: Inhibition at 10µM (%) Average, CDK12/K, average of replicates) of 8.2%, an inhibition at 10 µM (CDK12/Cyclin K; read-out: Inhibition at 10µM (%) Replicate 1, CDK12/K) of 3% and an inhibition at 10 µM (CDK12/Cyclin K; read-out: Inhibition at 10µM (%) Replicate 2, CDK12/K) of 13.3%. It also gave an inhibition at 10 µM (CDK13/Cyclin K; [1]) of 4.8%, an inhibition at 10 µM (CDK13/Cyclin K; [2]) of 8% and an inhibition at 10 µM (CDK13/Cyclin K; [3]) of 1.6%. For the same molecule, the inhibition at 10 µM (CDK15/Cyclin Y; [1]) was 4.5%, the inhibition at 10 µM (CDK15/Cyclin Y; [2]) was 2% and the inhibition at 10 µM (CDK15/Cyclin Y; [3]) was 7.1%. The inhibition at 10 µM (CDK16/Cyclin Y; [2]) was 39.3%, the inhibition at 10 µM (CDK16/Cyclin Y; [3]) was 37.9% and the inhibition at 10 µM (CDK17/Cyclin Y; [1]) was 31%. It also gave an inhibition at 10 µM (CDK17/Cyclin Y; [2]) of 30.9%, an inhibition at 10 µM (CDK17/Cyclin Y; [3]) of 31.1% and an inhibition at 10 µM (CDK18/Cyclin Y; [1]) of 19.9%. It also gave an inhibition at 10 µM (CDK18/Cyclin Y; [2]) of 17.3%, an inhibition at 10 µM (CDK18/Cyclin Y; [3]) of 22.4% and an inhibition at 10 µM (CDK20/Cyclin H; read-out: Inhibition at 10µM (%) Replicate 1, CDK20/H) of 1.3%. The inhibition at 10 µM (CDK20/Cyclin H; read-out: Inhibition at 10µM (%) Replicate 2, CDK20/H) was 1.3%, the inhibition at 10 µM (CDK19/Cyclin C; read-out: Inhibition at 10µM (%) Average, CDK19/C, average of replicates) was 11.1% and the inhibition at 10 µM (CDK19/Cyclin C; read-out: Inhibition at 10µM (%) Replicate 1, CDK19/C) was 12.3%. For the same molecule, the inhibition at 10 µM (CDK19/Cyclin C; read-out: Inhibition at 10µM (%) Replicate 2, CDK19/C) was 9.9%, the inhibition at 10 µM (CDK10/Cyclin L2; read-out: Inhibition at 10µM (%) Average, CDK10/L2, average of replicates) was 6.3% and the inhibition at 10 µM (CDK10/Cyclin L2; read-out: Inhibition at 10µM (%) Replicate 1, CDK10/L2) was 9.2%. For the same molecule, the inhibition at 10 µM (CDK10/Cyclin L2; read-out: Inhibition at 10µM (%) Replicate 2, CDK10/L2) was 3.4%.
